Experimental data as given in patent US20250002840A1, “MANUFACTURING METHOD OF MIXED POWDER, MIXED POWDER, POWDER, AND POWDER MEDIUM” (FUJIFILM Corporation, priority 2022, published 2025).

Assays:
[1] = Overall evaluation based on solubility and liquid property; format: physicochemical; details: based on the evaluation results of solubility and liquid property
[2] = Liquid property (pH) of the solution obtained in the solubility evaluation; format: physicochemical
Method: A pH of the solution obtained in the evaluation of solubility was evaluated. Liquid property was evaluated according to the following evaluation standard.

## N[C@@H](CSSC[C@H](N)C(=O)O)C(=O)O [Comparative Example 1, L-cystine]
[1]
  Overall evaluation: E (the solution was still turbid even after 1 hour, and/or the pH was other than neutral)
[2]
  Liquid property: Neutral (pH of 6.0 to 8.5)
